The text below walks through data of patent US9850278B2, “Synthetic anti-inflammatory peptides and use thereof” (CARMEL-HAIFA UNIVERSITY ECONOMIC CORP., priority 2013, dated 2017).

Entries after “also recorded” stand apart in the source; their conditions may differ.

The subject of assay [1] is bovine mammary gland epithelial lined cells (BMEC). Conditions: reported by Komine et al.; BMEC named for the bovine peptides; cited from earlier work.
For the next assay, the system named is TNF-α. The assay can be described thus: TNF-α secretion by LPS-activated U937-derived human macrophages, supernatant ELISA. The format is cell-based. Conditions: peptide 1-1000 μM 24 hrs, then LPS 100 ng/ml 24 hours; FKE effect at low concentrations (1-10 μM); others compared with FKE. As for the experimental part: (§1) U937 monocytic cells were cultured and underwent differentiation to macrophages as described above in Example 1. The cells were then incubated for 24 hrs in the presence of synthetic peptides, at 1-1000 μM: FKE (SEQ ID NO: 1), FKECHLA (SEQ ID NO: 21), FKECH (SEQ ID NO: 4), EKF or YKE (SEQ ID NO: 2). Control cells were left untreated. After 24 hours, untreated or peptide-treated cells were activated with lipopolysaccharide (LPS, 100 ng/ml for 24 hours). Following activation with LPS, cell free supernatants were collected and their content of IL-10, TGF-β, IL-6 and TNF-α was determined by standard ELISA.
For orientation: An ELISA detects its analyte on a solid surface through an enzyme-linked reagent.

The test system of the next assay is IL-10. The assay can be described thus: IL-10 secretion by U937-derived human macrophages, supernatant ELISA. The format is cell-based. Conditions: for IL-10 secretion, effect of peptide (Example 2, FIG. 4A): peptide 1-1000 μM 24 hrs, then LPS 100 ng/ml 24 hours, FKE effect at low concentrations (1-10 μM), others compared with FKE; for IL-10 secretion, effect of peptide: significant if ±30% of control. How it is done:
(§2) U937 monocytic cells were cultured in 1 ml culture media (RPMI 1640, Biological industries, Beit Haemek), supplemented with 10% Fetal Calf Serum (FCS), 1% pen strep (PS) and 0.04% β-mercaptoethanol) and seeded in 24 well plates (250,000 cells/well). The monocytes underwent differentiation to macrophages with PMA (50 ng/ml) for 48 Hours in a humidified atmosphere (7.5% CO2 at 37° C.). Then the cells were washed using preheated (37° C.) culture medium and synthetic peptides (FKE, SEQ ID NO: 1, or FKD, SEQ ID NO: 3, 0.1-1000 μM) were added to the cells for 24-48 hours. After 24 hours, untreated or peptide-treated cells were activated with lipopolysaccharide (LPS-stimulated, 100 ng/ml for 24 hours). After the indicated incubations, cell free supernatants were collected and their content of IL-10, TGF-β and IL-6 was determined by standard ELISA.
(§3) The results are presented in FIGS. 1-3 and summarized in Table 1 below (effect considered significant if ±30% of control):
as §1

The test system of the next assay is IL-6. The assay is described as follows: IL-6 secretion by U937-derived human macrophages, supernatant ELISA. The format is cell-based. The note with it: for IL-6 secretion, effect of peptide (Example 2, FIG. 4C): peptide 1-1000 μM 24 hrs, then LPS 100 ng/ml 24 hours, FKE effect at low concentrations (1-10 μM), others compared with FKE. As for the experimental part:
as §2, §3, §1

In a further assay the test system is TGF-β. The assay can be described thus: TGF-β secretion by U937-derived human macrophages, supernatant ELISA. The format is cell-based. The note with it: for TGF-β secretion, effect of peptide (Example 2, FIG. 4B): peptide 1-1000 μM 24 hrs, then LPS 100 ng/ml 24 hours, FKE effect at low concentrations (1-10 μM), others compared with FKE. As for the experimental part:
as §2, §3, §1

[2] abbreviates: LPS-stimulated macrophages (peptide 24 hrs, then LPS 100 ng/ml 24 hrs).
The mark [3] stands for this setting: Non-stimulated, 24 hrs, peptide at 1000 μM.
Setting [4] is: Non-stimulated, 48 hrs, peptide 0.1-1000 μM.
Where [5] appears, read: peptide at low concentrations (1-10 μM).

Regarding “FKDCHLA [positions 243-249 of human lactoferrin, Komine et al]”, the “induction of pro-inflammatory cytokines and chemokines (TNF-α, IL-6, IL-8 and MCP-1)” value (“induction … (TNF-α, IL-6, IL-8 and MCP-1)” below) in assay [1] was “induction”.

As to “Tyr-Lys-Glu (YKE) [synthetic tripeptide, from the corresponding position in murine lactoferrin]”, the “TNF-α secretion, effect of peptide (Example 2, FIG. 4D)” value (shortened to “TNF-α secretion, effect of peptide”) with TNF-α is “better inhibition”. Besides, the “IL-10 secretion, effect of peptide (Example 2, FIG. 4A)” value (from here on “IL-10 secretion … (Example 2, FIG. 4A)”) in the assay on IL-10 was “did not affect”. Also, the “IL-6 secretion, effect of peptide (Example 2, FIG. 4C)” value (shortened to “IL-6 secretion … (Example 2, FIG. 4C)”) in the assay with IL-6 is recorded as “reproduced these effects”.

“GQRDLFKDSAL [bovine counterpart of pep4, Komine et al]”: in assay [1], the “induction … (TNF-α, IL-6, IL-8 and MCP-1)” value is given as “induced”.

In the case of “GQKDLLFKDSAI [positions 295-307 of human lactoferrin, Komine et al]”, in assay [1], the “induction … (TNF-α, IL-6, IL-8 and MCP-1)” value is “induction”.

Turning to “phenylalanine-lysine-aspartic acid [FKD]”, the “IL-10 secretion, effect of peptide” value in the assay with IL-10 (setting [2]) is “decreased; also recorded: Decrease (max at”; in the assay with IL-10 (Non-stimulated macrophages, 24 hrs incubation, peptide 0.1-1000 μM) it was “Decrease (max at”. Further, the “IL-10 secretion, peptide concentration of maximal effect” value in the assay on IL-10 (LPS-stimulated, 24 hrs) is 100 µM; in the assay on IL-10 (Non-stimulated, 24 hrs), 1 µM; with IL-10 (Non-stimulated, 48 hrs) it was 1000 µM. For the same substance, the “IL-6 secretion, effect of peptide” value in the assay on IL-6 (setting [2]) is reported as “increased; also recorded: Increase (all conc.)”; in the assay on IL-6 (setting [3]), “Increase (at”; with IL-6 (setting [4]), “Increase”. In addition, the “IL-6 secretion, peptide concentration at which increase starts” value in the assay with IL-6 (Non-stimulated, 48 hrs) is on record as “at 0.1 μM)”. For the same substance, the “IL-6 secretion increase relative to FKE” value with IL-6 (Non-stimulated, 48 hrs, fold of FKE) stood at 4 fold. The “TGF-β secretion, peptide concentration of maximal effect” value with TGF-β (LPS-stimulated, 24 hrs) came out at 10 µM; in the assay on TGF-β (Non-stimulated, 24 hrs) it was 1 µM; in the assay with TGF-β (Non-stimulated, 48 hrs), 10 µM.

FKECH: the “TNF-α secretion, effect of peptide” value in the assay with TNF-α is listed as “pronounced activity in inhibiting”. Moreover, in the assay on IL-10, the “IL-10 secretion … (Example 2, FIG. 4A)” value is “less active than FKE”. Moreover, the “IL-6 secretion … (Example 2, FIG. 4C)” value in the assay on IL-6 was “less active than FKE”. Besides, the “TGF-β secretion, effect of peptide (Example 2, FIG. 4B)” value (“TGF-β secretion … (Example 2, FIG. 4B)” for short) with TGF-β is reported as “less active than FKE”.

“FKECHLA [known bovine lactoferrin-derived synthetic peptide, excluded from Formula I]”: in the assay with TNF-α, the “TNF-α secretion, effect of peptide” value is “reproduced the effects”. Also, the “IL-6 secretion … (Example 2, FIG. 4C)” value with IL-6 was “reproduced the effects”. The “induction … (TNF-α, IL-6, IL-8 and MCP-1)” value in assay [1] is “inactive”.

Regarding Phe-Lys-Glu (FKE), the “TNF-α secretion, effect of peptide” value with TNF-α is reported as “inhibits”. In the assay with IL-10 (setting [2]), the “IL-10 secretion, effect of peptide” value is “increased”. In addition, the “IL-10 secretion, peptide concentration of maximal effect” value in the assay with IL-10 (LPS-stimulated, 24 hrs) amounted to 1 µM; with IL-10 (Non-stimulated, 24 hrs), 10 µM; in the assay on IL-10 (Non-stimulated, 48 hrs), 0.1 µM. For the same substance, the “IL-10 secretion … (Example 2, FIG. 4A)” value in the assay with IL-10 is reported as “induces”. Moreover, the “IL-10 secretion, effect of peptide (Example 1)” value in the assay on IL-10 (setting [5]) is “induces”. Further, the entries for the “IL-6 secretion, effect of peptide” value with IL-6 (setting [2]), in the assay on IL-6 (setting [3]) and in the assay with IL-6 (setting [4]) were “No Increase”, “Increase (at” and “Increase (starts”, respectively. Further, the “IL-6 secretion, peptide concentration at which increase starts” value in the assay on IL-6 (Non-stimulated, 48 hrs) is on record as “at 0.1 μM)”. In the assay with IL-6, the “IL-6 secretion … (Example 2, FIG. 4C)” value is recorded as “inhibits”. Further, the “TGF-β secretion, peptide concentration of maximal effect” value turned out to be 100 µM with TGF-β (LPS-stimulated, 24 hrs) and 10 µM in the assay on TGF-β (Non-stimulated, 48 hrs). Also, the “TGF-β secretion, effect of peptide” value in the assay on TGF-β (Non-stimulated macrophages, 24 hrs incubation, peptide 0.1-1000 μM, significant if ±30% of control) is recorded as “No effect”. Besides, in the assay on TGF-β, the “TGF-β secretion … (Example 2, FIG. 4B)” value was “inhibits”. In addition, the “TGF-β secretion, effect of peptide (Example 1)” value in the assay with TGF-β (setting [5]) is recorded as “inhibits”.

Turning to Glu-Lys-Phe [EKF], the “TNF-α secretion, effect of peptide” value in the assay on TNF-α is recorded as “moderate inhibition”. Also, in the assay with IL-10, the “IL-10 secretion … (Example 2, FIG. 4A)” value was “did not reproduce these effects”. The “IL-6 secretion … (Example 2, FIG. 4C)” value in the assay with IL-6 is on record as “did not reproduce these effects”. In addition, the “TGF-β secretion … (Example 2, FIG. 4B)” value in the assay on TGF-β is recorded as “did not reproduce these effects”.
